Reference: patent US20080207614A1, “QUINAZOLINE DERIVATIVES FOR THE TREATMENT AND PREVENTION OF DIABETES AND OBESITY” (SK CHEMICALS CO., LTD., priority 2004, published 2008)

Tests used:
C2C12 muscle cells = test: Analysis of glucose absorption (2-deoxyglucose) in differentiated C2C12 muscle cells; assay type: cell-based; details: test materials 10 μM, times relative to control group
Summary of the method: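 Differentiated C2C12 myotubes (6 days in 1% serum) held 3 h in KRB with 5 mM glucose, then given test material at 10 μM. After 30 min, 0.2 μCi 2-deoxyglucose added for 20 min; uptake measured by radioactive counting of NaOH lysates.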

AMPK = test: Measurement of AMPK activity by Western blot in C2C12 cells; assay type: cell-based; set-up: key to AMPK activity (degree of phosphorylation of serine-79 and threonine-172): fold increase in threonine-172 phosphorylation; AMPK activity (degree of phosphorylation of serine-79): unit not given here; details: 10 μM for 50 minutes; for AMPK activity (degree of phosphorylation of serine-79 and threonine-172): no superscript: Western blot of serine-79 and threonine-172 phosphorylation; for AMPK activity (class: degree of phosphorylation of threonine-172): strong/mild/weak; for AMPK activity (degree of phosphorylation of serine-79): footnote a: Western blot of serine-79 phosphorylation
Summary of the method: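 Differentiated C2C12 cells were exposed to test material at 10 μM for 50 minutes, then lysed. AMPK activity was taken from Western blots of Thr-172 phosphorylation and acetyl CoA carboxylase Ser-79 phosphorylation, with ERK as loading reference. Thr-172 rise was graded strong (≥3-fold), mild (1-3-fold) or weak (<1-fold).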

Structure (SMILES)	Glucose absorption (C2C12 muscle cells)	AMPK activity (degree of phosphorylation of serine-79 and threonine-172) (AMPK)	AMPK activity (class: degree of phosphorylation of threonine-172) (AMPK)	AMPK activity (degree of phosphorylation of serine-79) (AMPK)
COc1ccc(CNc2nc(-c3ccccc3)nc3ccccc23)cc1OC [Compound 118, (3,4-Dimethoxybenzyl)-(2-phenylquinazolino-4-yl)-amine]	2.1	2.0	strong (“strong” means that the degree of phosphorylation of threonine-172 increased by 3 times or more)	
COc1ccc(COc2nc(-c3ccccc3)nc3ccccc23)c(OC)c1 [Compound 273, 4-(2,4-Dimethoxybenzyloxy)-2-phenylquinazoline]	0.7	1.5		
Cc1nc(NCCCCc2ccccc2)c2ccccc2n1 [Compound 168, (2-Methylquinazolino-4-yl)-(4-phenylbutyl)-amine]	3.6	8.4	strong (“strong” means that the degree of phosphorylation of threonine-172 increased by 3 times or more)	
c1ccc(-c2nc(NC3CC3)c3ccccc3n2)cc1 [Compound 110, Cyclopropyl-(2-phenylquinazolino-4-yl)-amine]	2.0	1.6	strong (“strong” means that the degree of phosphorylation of threonine-172 increased by 3 times or more)	
CC(c1ccccc1)c1nc(NCc2ccc3c(c2)OCO3)c2ccccc2n1 (stereo not shown) [Compound 374, Benzo[1,3]dioxol-5-ylmethyl-[2-(1-phenylethyl)-quinazolino-4-yl]-amine]	1.1	1.9		
CCCNc1nc(C(Cl)(Cl)Cl)nc2ccccc12 [Compound 7, Propyl-(2-trichloromethylquinazolino-4-yl)-amine]	1.5			4.4^a
C1=C(CCNc2nc(-c3ccccc3)nc3ccccc23)CCCC1 [Compound 131, (2-Cyclohex-1-enylethyl)-(2-phenylquinazolino-4-yl)-amine]	2.3	1.8	strong (“strong” means that the degree of phosphorylation of threonine-172 increased by 3 times or more)	
CCSc1nc(NCc2c(F)cccc2Cl)c2ccccc2n1 [Compound 49, (2-Chloro-6-fluorobenzyl)-(2-ethylsulfanylquinazolino-4-yl)-amine]	1.8		mild (“mild” means that the degree of phosphorylation of threonine-172 increased by 1 to 3 times)	
c1ccc(-c2nc(NCC(c3ccccc3)c3ccccc3)c3ccccc3n2)cc1 [Compound 133, (2,2-Diphenylethyl)-(2-phenylquinazolino-4-yl)-amine]	2.1	1.3	mild (“mild” means that the degree of phosphorylation of threonine-172 increased by 1 to 3 times)	
COC(c1ccccc1)c1nc(NCc2ccc3c(c2)OCO3)c2ccccc2n1 (stereo not shown) [Compound 363, Benzo[1,3]dioxol-5-ylmethyl-[2-(methoxyphenylmethyl)-quinazolino-4-yl]-amine]	1.3	1.4		
CCSc1nc(NCc2ccc3c(c2)OCO3)c2ccccc2n1 [Compound 37, Benzo[1,3]dioxol-5-ylmethyl-(2-ethylsulfanylquinazolino-4-yl)-amine]	2.2		strong (“strong” means that the degree of phosphorylation of threonine-172 increased by 3 times or more)	
FC(F)(F)c1cccc(CNc2nc(-c3ccccn3)nc3ccccc23)c1 [Compound 226, (2-Pyridino-2-ylquinazolino-4-yl)-(3-trifluoromethylbenzyl)-amine]	1.9	4.3	strong (“strong” means that the degree of phosphorylation of threonine-172 increased by 3 times or more)	
COc1ccccc1CNc1nc(C(C)c2ccccc2)nc2ccccc12 (stereo not shown) [Compound 371, (2-Methoxybenzyl)-[2-(1-phenylethyl)-quinazolino-4-yl]-amine]	1.2	2.8		
c1ccc(-c2nc(NCc3ccc4c(c3)OCO4)c3ccccc3n2)nc1 [Compound 230, Benzo[1,3]dioxol-5-ylmethyl-(2-pyridino-2-ylquinazolino-4-yl)-amine]	1.7	4.9	strong (“strong” means that the degree of phosphorylation of threonine-172 increased by 3 times or more)	
Fc1cccc(CCNc2nc(-c3ccccc3)nc3ccccc23)c1 [Compound 103, [2-(3-Fluorophenyl)-ethyl]-(2-phenylquinazolino-4-yl)-amine]	2.2	2.6	strong (“strong” means that the degree of phosphorylation of threonine-172 increased by 3 times or more)	
COc1cccc(CNc2nc(C3CCCCC3)nc3ccccc23)c1 [Compound 200, (2-Cyclohexylquinazolino-4-yl)-(3-methoxybenzyl)-amine]	2.7	1.5	strong (“strong” means that the degree of phosphorylation of threonine-172 increased by 3 times or more)	
COc1ccc(CNc2nc(C(C)C)nc3ccccc23)cc1OC [Compound 324, (3,4-Dimethoxybenzyl)-(2-isopropylquinazolino-4-yl)-amine]	1.3	2.3		
COc1cc(OC)c(CNc2ncnc3ccccc23)c(OC)c1 [Compound 414, Quinazolino-4-yl-(2,4,6-trimethoxybenzyl)-amine]	1.5	2.9		
CC(C)c1nc(NCCCCc2ccccc2)c2ccccc2n1 [Compound 180, (2-Isopropylquinazolino-4-yl)-(4-phenylbutyl)-amine]	4.1	3.9	strong (“strong” means that the degree of phosphorylation of threonine-172 increased by 3 times or more)	
FC(F)(F)c1ccc(CNc2nc(-c3ccccc3)nc3ccccc23)cc1 [Compound 139, (2-Phenylquinazolino-4-yl)-(4-trifluoromethylbenzyl)-amine]	2.5	2.1	strong (“strong” means that the degree of phosphorylation of threonine-172 increased by 3 times or more)	
COc1ccc(CNc2nc(C(C)c3ccccc3)nc3ccccc23)cc1 (stereo not shown) [Compound 373, (4-Methoxybenzyl)-[2-(1-phenylethyl)-quinazolino-4-yl]-amine]	1.1	2.1		
CCOc1cc2ncnc(NCc3ccc(Cl)cc3)c2cc1OCC [Compound 18, (4-Chlorobenzyl)-(6,7-diethoxyquinazolino-4-yl)-amine]	1.0			6.0^a
COc1cccc(CNc2nc(C(C)c3ccccc3)nc3ccccc23)c1 (stereo not shown) [Compound 372, (3-Methoxybenzyl)-[2-(1-phenylethyl)-quinazolino-4-yl]-amine]	1.1	6.3		
CC(Nc1nc(C(Cl)(Cl)Cl)nc2ccccc12)c1ccccc1 (stereo not shown) [Compound 5, (1-Phenylethyl)-(2-trichloromethylquinazolino-4-yl)-amine]	0.9			4.7^a
COc1cccc(CNc2nc(C(OC)c3ccccc3)nc3ccccc23)c1 (stereo not shown) [Compound 361, (3-Methoxybenzyl)-[2-(methoxyphenylmethyl)-quinazolino-4-yl]-amine]	1.3	2.1		
COc1cccc(CNc2nc(-c3cccs3)nc3ccccc23)c1OC [Compound 353, (2,3-Dimethoxybenzyl)-(2-thiopenyl-2-ylquinazolino-4-yl)-amine]	1.2	0.8		
CCCNc1nc(-c2ccccc2)nc2ccccc12 [Compound 61, (2-Phenylquinazolino-4-yl)-propylamine]	1.9		weak (“weak” means that the degree of phosphorylation of threonine-172 increased by less than 1 time)	
c1ccc2c(NCc3ccc4c(c3)OCO4)nc(N3CCOCC3)nc2c1 [Compound 309, Benzo[1,3]dioxol-5-ylmethyl-(2-morpholino-4-ylquinazolino-4-yl)-amine]	0.8	1.3		
Fc1ccc(CNc2nc(-c3ccccc3)nc3ccccc23)c(F)c1 [Compound 134, (2,4-Difluorobenzyl)-(2-phenylquinazolino-4-yl)-amine]	2.6	1.8	strong (“strong” means that the degree of phosphorylation of threonine-172 increased by 3 times or more)	
